{"source": "patent US10195166B2", "about": "“Methods for treating hepatitis C virus infectious disease” (priority 2013, dated 2019)", "format_in_all_cases": "cell-based, hepatitis C virus", "key": {"HCV": {"test_system": "HCV", "assay": "HCV RNA copies, GRIM19 overexpression combined with metformin", "details": "transfection with pcDNA3_GRIM19 plus metformin (FIG. 8)", "excerpt": "In this regard, a change in HCV RNA copies was examined in the case of administration of metformin (Sigama Aldrich, Cat. D150959), an activator of AMP-activated protein kinase (AMPK) inhibiting the activity of ACC, in combination."}, "[1]": {"test_system": "Huh7 cells infected with HCVcc", "assay": "HCV RNA level after direct treatment with cell permeable GRIM19 domain peptides", "details": "10 μM peptide for 48 hours (FIG. 12)", "protocol": "In order to confirm whether an anti-HCV effect is shown when penetrating each domain itself of GRIM19 protein into cells, the effect was evaluated in in vitro HCV infection model by synthesizing peptides in which cell permeable peptide sequences (CP) bind to N-terminal of each domain of GRIM19 of Example 8. The sequences of each domain of GRIM19 comprising the synthesized cell permeable peptide sequences (CP) were analyzed in Table 4 below.\nAfter treating Huh7 cells infected with HCVcc through in vitro HCV infection model of Example 2 with 10 μM of CP-GRIM19-D1, CP-GRIM19-D2, and CP-GRIM19-D3 for 48 hours, the level of RNA in HCV was examined."}, "[2]": {"test_system": "in vitro HCV infection model (HCVcc infected Huh7 cells)", "assay": "HCV RNA level after transfection with expression vectors for GRIM19 domains in in vitro HCV infection model", "details": "overexpression of the domain by transfection with expression vector (FIG. 11b)", "protocol": "An expression vector which can express the […], GRIM19-D2 (aa 37-72), GRIM19-D3 (aa 73-101), and GRIM19-D4 (aa 102-144) above was prepared, and the effect of each domain was evaluated in in vitro HCV infection model in Example 2.\nIn order to prepare the expression vector, the gene for each domain of GRIM19 was obtained through PCR with template of the vector expressing pcDNA3_GRIM19, and each domain was subcloned into pCMV-3Tag-3A vector (Agilent Technologies, Inc.) using restriction sites of restriction enzymes EcoRI and SalI. For GRIM19-D2, GRIM19-D3, and GRIM19-D4 to be expressed in the vector, a start codon was added prior to 5′ of the actually corresponding gene sequence of GRIM19. Accordingly, for each protein fragment, methionine was added prior to the N terminus of the actually corresponding amino acid sequence of GRIM19."}, "[3]": {"test_system": "HCVcc infected Huh7 cells", "assay": "HCV RNA copies, GRIM19 overexpression and/or sofosbuvir in in vitro HCV infection model", "details": "transfection with pcDNA3_GRIM19 plus sofosbuvir (FIG. 10)", "protocol": "HCVcc infected Huh7 cells were transfected with pcDNA3_GRIM19 using FUGENE HD, as in Example 3 above, the cells were treated with sofosbuvir (PharmaBLOCK R&D Co. Ltd.) (Formula 2):\n[drawing 6] a compound inhibiting RNA-dependent RNA polymerase activity of HCV, or the cells were transfected with pcDNA3_GRIM19 and treated with sofosbuvir. Then, a change in HCV RNA copies was evaluated."}, "[4]": {"test_system": "HCVcc infected Huh7 cells", "assay": "HCV replication, GRIM19 overexpression combined with DGAT-1 inhibitor", "details": "40 μM compound of Formula 1 simultaneously with GRIM19 overexpression in HCVcc infected Huh7 cells (FIG. 9)"}}, "note": "No end group written: not given here.", "data": [{"compound": "CN(C)C(=N)N=C(N)N", "note": "[metformin]", "values": [{"measurement": "effect of the combination on HCV", "setting": "HCV", "value": "synergistic effect of inhibiting HCV"}, {"measurement": "increase in HCV RNA compared with treatment with metformin alone", "setting": "HCV", "value": "considerably lower"}]}, {"compound": "CP-GRIM19-D2: synthesized peptide, cell permeable peptide sequence (CP) at N-terminal of GRIM19 domain 2, SEQ ID NO: 15 (RRRRRRRRRAIGIGTLIYGHWSIMKWNRERRRLQIEDFEARIALL; CP-GRIM19-D2)", "values": [{"measurement": "level of HCV RNA", "setting": "[1]", "value": "significantly decreased"}]}, {"compound": "GRIM19-D1: GRIM19 protein fragment aa 1-36 (SEQ ID NO: 6), expressed from pCMV-3Tag-3A vector (MAASKVKQDMPPPGGYGPIDYKRNLPRRGLSGYSML; also: 3Tag vector tags (pCMV-3Tag-3A))", "values": [{"measurement": "level of HCV RNA", "setting": "[2]", "value": "significantly decreased"}]}, {"compound": "CP-GRIM19-D1: synthesized peptide, cell permeable peptide sequence (CP) at N-terminal of GRIM19 domain 1, SEQ ID NO: 14 (RRRRRRRRRMAASKVKQDMPPPGGYGPIDYKRNLPRRGLSGYSML; CP-GRIM19-D1)", "values": [{"measurement": "level of HCV RNA", "setting": "[1]", "value": "significantly decreased"}]}, {"compound": "GRIM19-D4: GRIM19 protein fragment aa 102-144 (SEQ ID NO: 12), expressed from pCMV-3Tag-3A vector (MDWKVGESVFHTTRWVPPLIGELYGLRTTEEALHASHGFMWYT; also: 3Tag vector tags (pCMV-3Tag-3A))", "values": [{"measurement": "level of HCV RNA", "setting": "[2]", "value": "significantly decreased"}]}, {"compound": "CC(C)OC(=O)[C@H](C)N[P@](=O)(OC[C@H]1O[C@@H](n2ccc(=O)[nH]c2=O)[C@](C)(F)[C@@H]1O)Oc1ccccc1", "note": "[sofosbuvir]", "values": [{"measurement": "effect of the combination on HCV", "setting": "[3]", "value": "synergistic effect of inhibiting HCV"}, {"measurement": "lower increase in HCV RNA than treatment with sofosbuvir alone", "setting": "[3]", "value": "≥ 45", "unit": "%"}]}, {"compound": "GRIM19-D3: GRIM19 protein fragment aa 73-101 (SEQ ID NO: 10), expressed from pCMV-3Tag-3A vector (MPLLQAETDRRTLQMLRENLEEEAIIMKDV; also: 3Tag vector tags, position not given here)", "values": [{"measurement": "level of HCV RNA", "setting": "[2]", "value": "significantly decreased"}]}, {"compound": "CP-GRIM19-D3: synthesized peptide, cell permeable peptide sequence (CP) at N-terminal of GRIM19 domain 3, SEQ ID NO: 16 (RRRRRRRRRPLLQAETDRRTLQMLRENLEEEAIIMKDV; CP-GRIM19-D3)", "values": [{"measurement": "level of HCV RNA", "setting": "[1]", "value": "significantly decreased"}]}, {"compound": "GRIM19-D2: GRIM19 protein fragment aa 37-72 (SEQ ID NO: 8), expressed from pCMV-3Tag-3A vector (MAIGIGTLIYGHWSIMKWNRERRRLQIEDFEARIALL; also: 3Tag vector tags, position not given here)", "values": [{"measurement": "level of HCV RNA", "setting": "[2]", "value": "significantly decreased"}]}, {"compound": "O=C(Nc1ccccc1)Nc1ccc(-c2ccc(C(=O)[C@@H]3CCC[C@H]3C(=O)O)cc2)cc1", "note": "[A922500]", "values": [{"measurement": "effect of the combination on HCV replication", "setting": "[4]", "value": "synergistic effect of inhibiting HCV replication"}]}]}
